Source: patent EP4806897A1, “AZA-BRIDGED RING DERIVATIVE” (Chia Tai Tianqing Pharmaceutical Group Co., Ltd., priority 2023, dated 2025)

Columns and labels:
MOLM-13 cells = test: In vitro cell activity assay (CCK-8 proliferation), MOLM-13; type: cell-based; conditions: Homo sapiens, CCK-8, 72-120 h, read-out: IC50 (nM) for inhibitory activity against proliferation of MOLM-13 cells
Procedure: (§1) MOLM-13 cells or MV-4-11 cells (source: Nanjing Cobioer Biosciences Co., Ltd.) in a good growth state were taken and seeded into a 96-well plate (100 µL/well) at 2000-10000 cells/well. After the cells were cultured overnight in a cell incubator at 37 °C, the compounds were subjected to gradient dilution and added using a pipettor, with 2 parallel replicate wells in each group. Meanwhile, a control group was set. After the cells were cultured in a cell incubator at 37 °C for another 72-120 h, the detection reagent CCK-8 (manufacturer: Dojindo Laboratories, Japan; 10 µL/well) was added. After the cells were cultured at 37 °C for another 3-5 h, absorbance values were measured at […] using a PerkinElmer Envision multi-functional microplate reader. Four-parameter analysis was performed in GraphPad Prism software to fit dose-response curves and calculate IC50 values. A represents that IC50 < 50 nM. Table 1. Inhibitory activity against cell proliferation

MV-4-11 cells = test: In vitro cell activity assay (CCK-8 proliferation), MV-4-11; type: cell-based; conditions: Homo sapiens, MV4-11; CCK-8, 72-120 h; read-out: IC50 (nM) for inhibitory activity against proliferation of MV-4-11 cells
Procedure: as §1

Menin-MLL interaction = molecular target: T1, Menin-MLL interaction (Homo sapiens, UniProt O00255); test: Fluorescence polarization assay of Menin-MLL interaction; conditions: GST-MENIN (1-615 aa) 8 nM, FITC-MLL15-43 8 nM; read-out: IC50 (nM) for inhibitory activity against Menin-MLL protein binding
T1 construct: GST-MENIN (1-615 aa) and FITC-MLL15-43 were diluted with an FP buffer
T1 sequence (O00255 1-615 isoform O00255-1): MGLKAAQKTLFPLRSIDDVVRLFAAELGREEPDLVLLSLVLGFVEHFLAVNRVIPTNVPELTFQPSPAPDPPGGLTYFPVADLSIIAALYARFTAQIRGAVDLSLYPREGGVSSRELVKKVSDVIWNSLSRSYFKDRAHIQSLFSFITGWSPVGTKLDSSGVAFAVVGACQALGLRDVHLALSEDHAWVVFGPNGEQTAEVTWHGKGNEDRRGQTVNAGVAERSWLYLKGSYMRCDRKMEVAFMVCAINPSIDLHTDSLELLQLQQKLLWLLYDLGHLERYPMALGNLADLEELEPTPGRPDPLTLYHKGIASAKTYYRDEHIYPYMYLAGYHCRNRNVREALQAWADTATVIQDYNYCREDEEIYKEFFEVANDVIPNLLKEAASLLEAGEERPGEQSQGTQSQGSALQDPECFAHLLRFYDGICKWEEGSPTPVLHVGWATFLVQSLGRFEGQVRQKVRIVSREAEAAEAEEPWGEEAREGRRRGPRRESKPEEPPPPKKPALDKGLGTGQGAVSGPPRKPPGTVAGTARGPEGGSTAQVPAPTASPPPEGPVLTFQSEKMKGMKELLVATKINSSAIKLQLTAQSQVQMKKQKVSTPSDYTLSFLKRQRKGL
Procedure: The binding activity of the compounds for the menin protein was determined by a fluorescence polarization assay. GST-MENIN (1-615 aa) and FITC-MLL15-43 were diluted with an FP buffer (50 mM Tris-HCl pH 7.5, 50 mM NaCl, 1 mM DTT, 0.01% BSA), and the mixed solution of GST-MENIN (1-615 aa) at a final concentration of 8 nM and FITC-MLL15-43 at a final concentration of 8 nM was added to a black 384-well microtiter plate at 10 µL/well. The plate was centrifuged at 2500 rpm for 1 min and incubated at room temperature in the dark for 1 h. 5 µL of diluted compound (7 concentration points, 4-fold serial dilution, with blank control and negative control wells set) was added, and the plate was centrifuged at 2500 rpm for 1 min and incubated at room temperature in the dark for 3 h. After incubation, FP (480/535) values were measured using a PerkinElmer Envision multi-functional microplate reader, and the ability of the compounds to inhibit the Menin-MLL interaction was determined by calculating the inhibition rate (%) for each compound concentration according to formula 1; formula 1: inhibition rate (%) = 1 - (Maximum mP Control - mP of administration group)/(Maximum mP Control - minimum mP Control) × 100%. Four-parameter analysis was performed in GraphPad Prism software to fit dose-response curves and calculate IC50 values. A represents that IC50 < 50 nM. Table 2. Inhibitory activity against Menin-MLL protein binding

[1] = In vitro liver microsomal stability, mouse; conditions: mouse liver microsomes 0.5 mg/mL, compound 1 µM, 37 °C
Procedure: (§2) Liver microsome incubation samples were prepared by mixing a PBS buffer (pH 7.4), a liver microsome solution from various species (human, mouse, monkey, dog, and rat) (0.5 mg/mL), a test compound (final concentration: 1 µM), and an NADPH + MgCl2 solution, followed by incubation at 37 °C and 300 rpm. Samples were collected from the reaction solution at the time points of 15 min and 60 min. Zero-hour samples were prepared by mixing a PBS buffer (pH 7.4), a liver microsome solution (0.5 mg/mL), and a test compound. An acetonitrile solution containing an internal standard was added to the samples, and supernatants were prepared by protein precipitation, diluted, and then assayed by LC-MS/MS.

[2] = In vitro liver microsomal stability, human; conditions: human liver microsomes 0.5 mg/mL, compound 1 µM, 37 °C
Procedure: as §2

`C=C1CC2CCC1C(C(=O)N1CCCC3(CC1)CN(c1ncncc1Oc1ccc(F)cc1-c1cccnc1C1CC1)C3)N2` (stereo not shown) [Compound 76] showed an IC50 (MOLM-13 cells) of under 50 nM and an IC50 (MV-4-11 cells) of under 50 nM.

In the case of `C=C1CC2CCC1C(C(=O)N1CCC3(CC1)CN(c1ncnnc1Oc1c(F)cc(F)cc1-c1cccnc1C1CC1)C3)N2` (stereo not shown) [Compound 58], the IC50 (MV-4-11 cells) is reported as under 50 nM.

In the case of `C=C1C[C@@H]2CC[C@H]1[C@@H](C(=O)N1CCC3(CC1)CN(c1ncnnc1Oc1ccc(F)cc1-c1cccnc1C1CC1)C3)N2` [Compound 31], the IC50 (MOLM-13 cells) is reported as under 50 nM, the IC50 (MV-4-11 cells) is reported as under 50 nM and the IC50 (Menin-MLL interaction) is reported as under 50 nM.

In the case of `C=C1C[C@@H]2CC[C@H]1[C@@H](C(=O)N1CCC3(CC1)CN(c1ncnnc1Oc1ccc(F)cc1-c1ccnn1C(C)C)C3)N2` [Compound 32], the IC50 (MV-4-11 cells) is reported as under 50 nM and the IC50 (Menin-MLL interaction) is reported as under 50 nM.

`C=C1C[C@@H]2CC[C@H]1[C@@H](C(=O)N1CCC3(CC1)CN(c1ncnnc1Oc1ccc(F)cc1-c1cc(C(F)(F)F)cnc1C1CC1)C3)N2` [Compound 54] gave an IC50 (MOLM-13 cells) of under 50 nM, an IC50 (MV-4-11 cells) of under 50 nM and an IC50 (Menin-MLL interaction) of under 50 nM.

In the case of `C=C1C[C@@H]2CC[C@H]1[C@@H](C(=O)N1CC3(C1)CN(c1ncnnc1Oc1ccc(F)cc1-c1cncnc1C1CC1)C3)N2` [Compound 73], the IC50 (MOLM-13 cells) is reported as under 50 nM, the IC50 (MV-4-11 cells) is reported as under 50 nM and the “Residuals at 60 min (%)” value [1] is reported as over 60%. For the same molecule, the IC50 (Menin-MLL interaction) was under 50 nM.

`C=C1C[C@@H]2CC[C@H]1[C@@H](C(=O)N1CC3(C1)CN(c1ncnnc1Oc1ccc(F)cc1C(=O)N(CC)C(C)C)C3)N2` [Compound 56] gave an IC50 (MOLM-13 cells) of under 50 nM, an IC50 (MV-4-11 cells) of under 50 nM and an IC50 (Menin-MLL interaction) of under 50 nM. The “Residuals at 60 min (%)” value [2] was over 40%.

In the case of `C=C1C[C@@H]2CC[C@H]1[C@@H](C(=O)N1CCC3(CC1)CN(c1ncnnc1Oc1ccc(F)cc1-c1cncnc1C1CC1)C3)N2` [Compound 33], the IC50 (MV-4-11 cells) is reported as under 50 nM, the “Residuals at 60 min (%)” value [1] is reported as over 60% and the IC50 (Menin-MLL interaction) is reported as under 50 nM.

For `C=C1C[C@@H]2CC[C@H]1[C@@H](C(=O)N1CCC3(CC1)CN(c1ccnnc1Oc1ccc(F)cc1C(=O)N(CC)C(C)C)C3)N2` [Compound 36], the IC50 (MOLM-13 cells) was under 50 nM, the IC50 (MV-4-11 cells) was under 50 nM and the IC50 (Menin-MLL interaction) was under 50 nM.

Work on `C=C1C[C@@H]2CC[C@H]1[C@@H](C(=O)N1CC3(C1)CN(c1ncnnc1Oc1ccc(F)cc1-c1cccnc1C1CC1)C3)N2` [Compound 67] yielded an IC50 (MOLM-13 cells) of under 50 nM, an IC50 (MV-4-11 cells) of under 50 nM and an IC50 (Menin-MLL interaction) of under 50 nM.

With `C=C1C[C@@H]2CC[C@H]1[C@@H](C(=O)N1CCC3(CC1)CN(c1ncncc1Oc1ccc(F)cc1C(=O)N(CC)C(C)C)C3)N2` [Compound 2] the IC50 (MOLM-13 cells) was under 50 nM, the IC50 (MV-4-11 cells) was under 50 nM and the IC50 (Menin-MLL interaction) was under 50 nM.

Work on `C=C1C[C@@H]2CC[C@H]1[C@@H](C(=O)N1CCC3(CC1)CN(c1ncnnc1Oc1ccc(F)cc1-c1ccnnc1C1CC1)C3)N2` [Compound 74] yielded an IC50 (MOLM-13 cells) of under 50 nM, an IC50 (MV-4-11 cells) of under 50 nM and an IC50 (Menin-MLL interaction) of under 50 nM.

For `C=C1CC2CCC1C(C(=O)N1CCCC3(CC1)CN(c1ncncc1Oc1ccc(F)cc1-c1cncnc1C1CC1)C3)N2` (stereo not shown) [Compound 77], the IC50 (MOLM-13 cells) was under 50 nM and the IC50 (MV-4-11 cells) was under 50 nM.

In the case of `C=C1C[C@@H]2CC[C@H]1[C@@H](C(=O)N1CC3(C1)CN(c1ncnnc1Oc1ccc(F)cc1-c1ccnn1C(C)C)C3)N2` [Compound 71], the IC50 (MOLM-13 cells) is reported as under 50 nM, the IC50 (MV-4-11 cells) is reported as under 50 nM and the IC50 (Menin-MLL interaction) is reported as under 50 nM.

`C=C1CC2CCC1C(C(=O)N1CCC3(CC1)CN(c1ncnnc1Oc1ccc(F)cc1-c1cccnc1OC)C3)N2` (stereo not shown) [Compound 34] showed an IC50 (MV-4-11 cells) of under 50 nM.

With `C=C1C[C@@H]2CC[C@H]1[C@@H](C(=O)N1CCC3(CC1)CN(c1ncncc1Oc1ccc(F)cc1-c1cccnc1C1CC1)C3)N2` [Compound 3] the IC50 (MOLM-13 cells) was under 50 nM, the IC50 (MV-4-11 cells) was under 50 nM and the IC50 (Menin-MLL interaction) was under 50 nM.

With `C=C1C[C@@H]2CC[C@H]1[C@@H](C(=O)N1CCC3(CC1)CN(c1ncnnc1Oc1ccc(F)cc1C(=O)N(CC)C(C)C)C3)N2` [Compound 27] the IC50 (MOLM-13 cells) was under 50 nM, the IC50 (MV-4-11 cells) was under 50 nM and the “Residuals at 60 min (%)” value [1] was over 60%. For the same molecule, the IC50 (Menin-MLL interaction) was under 50 nM and the “Residuals at 60 min (%)” value [2] was over 40%.

`C=C1CC2CCC1C(C(=O)N1CCC3(CC1)CN(c1ncnnc1Oc1ccc(F)cc1-c1ccnn1C1CC1)C3)N2` (stereo not shown) [Compound 70] showed an IC50 (MV-4-11 cells) of under 50 nM.

Molecule `C=C1CC2CCC1C(C(=O)N1CCC3(CC1)CN(c1ncnnc1Oc1ccc(F)cc1-c1nccn1C(C)C)C3)N2` (stereo not shown) [Compound 65] has an IC50 (MV-4-11 cells) of under 50 nM.

With `C=C1C[C@@H]2CC[C@H]1[C@@H](C(=O)N1CCC3(CC1)CN(c1ncnnc1Oc1ccc(F)cc1-c1cnccc1OC)C3)N2` [Compound 48] the “Residuals at 60 min (%)” value [1] was over 60%, the IC50 (Menin-MLL interaction) was under 50 nM and the “Residuals at 60 min (%)” value [2] was over 40%.

Work on `C=C1C[C@@H]2CC[C@H]1[C@@H](C(=O)N1CCC3(CC1)CN(c1ncnnc1Oc1ccc(F)cc1C(=O)N1C(C)CCCC1C)C3)N2` (stereo partly shown) [Compound 46] yielded an IC50 (MV-4-11 cells) of under 50 nM and an IC50 (Menin-MLL interaction) of under 50 nM.

Work on `C=C1C[C@@H]2CC[C@H]1[C@@H](C(=O)N1CCC3(CC1)CN(c1ncnnc1Oc1ccc(F)cc1C(=O)N(C(C)C)C(C)C)C3)N2` [Compound 50] yielded an IC50 (MOLM-13 cells) of under 50 nM, an IC50 (MV-4-11 cells) of under 50 nM and an IC50 (Menin-MLL interaction) of under 50 nM.

`C=C1CC2CCC1C(C(=O)N1CCC3(CC1)CN(c1ncnnc1Oc1ccc(F)cc1-c1nccnc1C1CC1)C3)N2` (stereo not shown) [Compound 66] showed an IC50 (MV-4-11 cells) of under 50 nM.

With `C=C1C[C@@H]2CC[C@H]1[C@@H](C(=O)N1CCC3(CC1)CN(c1ncncc1Oc1ccc(F)cc1-c1ccnn1C(C)C)C3)N2` [Compound 4] the IC50 (MOLM-13 cells) was under 50 nM, the IC50 (MV-4-11 cells) was under 50 nM and the IC50 (Menin-MLL interaction) was under 50 nM.

With `C=C1C[C@@H]2CC[C@H]1[C@@H](C(=O)N1CCC3(CC1)CN(c1ncnnc1Oc1ccc(F)cc1-c1ccc(O)nc1C1CC1)C3)N2` [Compound 64] the IC50 (MV-4-11 cells) was under 50 nM, the “Residuals at 60 min (%)” value [1] was over 60% and the IC50 (Menin-MLL interaction) was under 50 nM. The “Residuals at 60 min (%)” value [2] was over 40%.

Molecule `C=C1CC2CCC1C(C(=O)N1CCC3(CC1)CN(c1ncncc1Oc1ccc(F)cc1C(=O)N(C)C(C)C)C3)N2` (stereo not shown) [Compound 6] has an IC50 (MV-4-11 cells) of under 50 nM.

With `C=C1C[C@@H]2CC[C@H]1[C@@H](C(=O)N1CCC3(CC1)CN(c1ccnnc1Oc1ccc(F)cc1-c1cccnc1C1CC1)C3)N2` [Compound 35] the IC50 (MOLM-13 cells) was under 50 nM, the IC50 (MV-4-11 cells) was under 50 nM and the IC50 (Menin-MLL interaction) was under 50 nM.
